For this assay, the target named is 72 kDa type IV collagenase (Rattus norvegicus, UniProt P33436). Nature of the assay: Inhibition of gelatinolytic activity of MMP2 in rat lung homogenate after 40 mins by SDS-PAGE preincubated for 30 mins.
Chain of 72 kDa type IV collagenase (P33436 whole entry): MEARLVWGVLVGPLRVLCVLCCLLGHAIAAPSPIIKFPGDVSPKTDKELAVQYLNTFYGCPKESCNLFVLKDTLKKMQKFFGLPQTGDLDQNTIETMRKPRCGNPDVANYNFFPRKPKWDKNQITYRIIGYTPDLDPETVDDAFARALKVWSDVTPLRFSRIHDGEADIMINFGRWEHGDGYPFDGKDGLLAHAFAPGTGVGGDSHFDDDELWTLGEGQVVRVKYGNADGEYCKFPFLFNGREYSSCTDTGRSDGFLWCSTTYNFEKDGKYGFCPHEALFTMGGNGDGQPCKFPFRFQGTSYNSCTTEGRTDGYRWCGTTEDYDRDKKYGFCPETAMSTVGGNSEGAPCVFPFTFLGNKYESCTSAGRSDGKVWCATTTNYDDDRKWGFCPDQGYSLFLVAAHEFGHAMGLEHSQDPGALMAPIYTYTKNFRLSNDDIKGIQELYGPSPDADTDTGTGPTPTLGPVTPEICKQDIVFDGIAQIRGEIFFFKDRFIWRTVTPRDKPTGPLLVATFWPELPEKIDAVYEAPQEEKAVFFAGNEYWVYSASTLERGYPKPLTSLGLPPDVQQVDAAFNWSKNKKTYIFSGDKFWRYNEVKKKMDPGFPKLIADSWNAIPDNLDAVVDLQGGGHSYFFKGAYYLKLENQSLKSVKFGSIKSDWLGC
Regarding `O=C(/C=C/c1ccc(O)cc1)O[C@H](Cc1ccc(O)c(O)c1)C(=O)O` [CLINOPODIC ACID A], the IC50 (usually the concentration that inhibits the measured activity by half) is above 100 µM. The result for `COc1cc(C[C@@H](OC(=O)/C=C/c2ccc(O)c(O)c2)C(=O)O)ccc1O` [CLINOPODIC ACID B] reads above 100 µM. The result for `O=C(/C=C/c1ccc2c(c1)O[C@H](C(=O)O)[C@H](c1ccc(O)c(O)c1)O2)O[C@H](Cc1ccc(O)c(O)c1)C(=O)O` [CLINOPODIC ACID C] reads 3.26 µM; that for `O=C(/C=C/c1ccc2c(c1)O[C@@H](C(=O)O)[C@@H](c1ccc(O)c(O)c1)O2)O[C@H](Cc1ccc(O)c(O)c1)C(=O)O` [CLINOPODIC ACID E], above 100 µM; that for `COc1cc(C[C@@H](OC(=O)/C=C/c2ccc3c(c2)O[C@@H](C(=O)O)[C@@H](c2ccc(O)c(O)c2)O3)C(=O)O)ccc1O` [CLINOPODIC ACID F], above 100 µM. To `COc1cc(C[C@@H](OC(=O)/C=C/c2ccc(O)c3c2[C@H](C(=O)O)[C@@H](c2ccc(O)c(OC)c2)O3)C(=O)O)ccc1O` [CLINOPODIC ACID H] belongs above 100 µM; to `O=C(/C=C/c1ccc(O)c2c1[C@H](C(=O)O)[C@@H](c1ccc(O)c(O)c1)O2)O[C@H](Cc1ccc(O)c(O)c1)C(=O)O` [LITHOSPERMIC ACID], 10.2 µM; to `COC(=O)[C@@H](Cc1ccc(O)c(O)c1)OC(=O)/C=C/c1ccc(O)c(O)c1` [METHYL ROSMARINATE], above 100 µM. As for `O=C(/C=C/c1ccc(O)c(O)c1)O[C@H](Cc1ccc(O)c(O)c1)C(=O)O` [ROSMARINIC ACID], half-maximal inhibition (IC50) required 27.2 µM.

For the origin of these results see ChEMBL document CHEMBL1154248, “Matrix metalloproteinase-2 inhibitors from Clinopodium chinense var. parviflorum” (J Nat Prod, 2009).
